BindingDB's records for doi:10.1021/acs.jnatprod.0c01182 (Chinese Academy of Sciences, 2021)

What was measured:
[1] = Reversal of P-gp-mediated multidrug resistance in human KB/VCR cells assessed as potentiation of vincristine-induced antiproliferative activity by measuring vincristine IC50 at 20 uM measured after 72 hrs by CCK8 assay (Rvb = 0.78 uM)
[2] = Reversal of P-gp-mediated multidrug resistance in human KB/VCR cells assessed as potentiation of vincristine-induced antiproliferative activity by measuring vincristine IC50 at 2 uM measured after 72 hrs by CCK8 assay (Rvb = 0.51 uM)

Structure (SMILES)	IC50 [1] [nM]	IC50 [2] [nM]
CC(=O)O[C@@H]1[C@@H]2[C@@H](OC(C)=O)[C@]3(OC2(C)C)[C@H](C)CC[C@H](OC(C)=O)[C@@]3(C)[C@@H]1OC(=O)c1ccccc1	< 8	200
CC(=O)OC[C@]12[C@H](OC(C)=O)C(=O)[C@@H]3[C@@H](OC(C)=O)[C@]1(OC3(C)C)[C@H](C)[C@@H](O)[C@H](OC(C)=O)[C@@H]2OC(C)=O	390	550
CC(=O)OC[C@]12[C@H](OC(C)=O)C(=O)[C@@H]3[C@@H](O)[C@]1(OC3(C)C)[C@H](C)[C@@H](O)[C@H](OC(C)=O)[C@@H]2OC(C)=O	530	500
CC(=O)O[C@@H]1[C@H]2[C@H](O)[C@H](OC(=O)c3ccccc3)[C@]3(C)[C@@H](OC(C)=O)[C@H](O)C[C@@H](C)[C@@]13OC2(C)C	310	430
CC(=O)OC[C@]12[C@H](OC(C)=O)C(=O)[C@@H]3[C@@H](OC(C)=O)[C@]1(OC3(C)C)[C@H](C)C[C@H](O)[C@@H]2OC(C)=O	330	480
CCCCCC(=O)O[C@@H]1[C@@H]2[C@@H](OC(C)=O)[C@]3(OC2(C)C)[C@H](C)C[C@@H](OC(C)=O)[C@H](OC(C)=O)[C@@]3(C)[C@H]1OC(=O)c1ccccc1	21	350
CC(=O)OC[C@]12[C@H](OC(C)=O)C(=O)[C@@H]3[C@@H](O)[C@]1(OC3(C)C)[C@H](C)[C@@H](OC(C)=O)[C@H](OC(C)=O)[C@@H]2OC(C)=O	260	470
CC(=O)O[C@H]1[C@@H]2[C@@H](OC(C)=O)[C@]3(OC2(C)C)[C@H](C)C[C@@H](OC(C)=O)[C@H](OC(C)=O)[C@@]3(C)[C@H]1OC(=O)c1ccccc1	56	190
CC(=O)O[C@H]1[C@@H]2[C@@H](OC(=O)/C=C/c3ccccc3)[C@]3(OC2(C)C)[C@H](C)C[C@@H](OC(C)=O)[C@H](OC(C)=O)[C@@]3(C)[C@H]1OC(=O)c1ccccc1	< 8	100
CC(=O)O[C@@H]1[C@@H]2[C@@H](OC(C)=O)[C@]3(OC2(C)C)[C@H](C)C[C@@H](OC(C)=O)[C@H](OC(C)=O)[C@@]3(C)[C@@H]1OC(=O)c1ccccc1	22	150
CC(=O)O[C@@H]1[C@@H]2[C@@H](OC(C)=O)[C@]3(OC2(C)C)[C@H](C)C[C@H](OC(=O)/C=C/c2ccccc2)[C@H](OC(C)=O)[C@@]3(C)[C@@H]1OC(=O)c1ccccc1	26	100
CC(=O)O[C@H]1[C@@H]2[C@@H](OC(=O)c3cccnc3)[C@]3(OC2(C)C)[C@H](C)C[C@H](OC(C)=O)[C@@H](OC(C)=O)[C@@]3(C)[C@H]1OC(=O)c1ccccc1	< 8	64
CC(=O)O[C@H]1CC[C@@H](C)[C@]23OC(C)(C)[C@H](C[C@H](OC(=O)c4ccccc4)[C@]12C)[C@H]3OC(C)=O	15	210
CC(=O)O[C@@H]1[C@@H]2[C@@H](OC(C)=O)[C@]3(OC2(C)C)[C@H](C)CC[C@H](OC(C)=O)[C@@]3(C)[C@H]1OC(=O)c1ccccc1	34	240
CC(=O)O[C@@H]1C[C@@H](C)[C@]23OC(C)(C)[C@H]([C@@H](O)[C@H](OC(=O)c4ccccc4)[C@@]2(C)[C@H]1OC(C)=O)[C@H]3OC(=O)/C=C/c1ccccc1	–	48
CC(=O)O[C@H]1[C@@H]2[C@@H](OC(=O)/C=C/c3ccccc3)[C@]3(OC2(C)C)[C@H](C)C[C@H](O)[C@H](OC(C)=O)[C@@]3(C)[C@H]1OC(=O)c1ccccc1	–	37
CC(=O)O[C@H]1CC[C@@H](C)[C@]23OC(C)(C)[C@H](C[C@H](OC(=O)c4ccccc4)[C@]12C)[C@H]3OC(=O)c1ccccc1	–	100
CC(=O)O[C@@H]1C[C@@H](C)[C@]23OC(C)(C)[C@H](C[C@H](OC(=O)c4ccccc4)[C@]2(C)[C@H]1OC(C)=O)[C@H]3OC(=O)/C=C/c1ccccc1	–	58
COc1cc2c(cc1OC)CN(CCc1ccc(-n3nnc(-c4cc(OC)c(OC)cc4NC(=O)c4cc(=O)c5ccccc5o4)n3)cc1)CC2 [Encequidar]	–	16
